# From patent publication US20230120142A1, “COMPOSITIONS AND METHODS FOR THE TREATMENT OF INTRACELLULAR BACTERIAL INFECTIONS” (Endolytix Technology, Inc., priority 2020, published 2023)
# Test system: M. abscessus cells
# Test: Cell growth assay of ABIα plus antibiotic, Fractional Inhibitory Concentration (FIC) index
# Type: cell-based, Mycobacterium abscessus
# Conditions: antibiotic in combination with ABIα cocktail; FIG. 5
row,Structure (SMILES),interaction by Fractional Inhibitory Concentration (FIC) index on attenuation of M. abscessus growth
1,NCC[C@H](O)C(=O)N[C@@H]1C[C@H](N)[C@@H](O[C@H]2O[C@H](CN)[C@@H](O)[C@H](O)[C@H]2O)[C@H](O)[C@H]1O[C@H]1O[C@H](CO)[C@@H](O)[C@H](N)[C@H]1O [amikacin],synergistic effects
2,CO[C@@]1(NC(=O)Cc2cccs2)C(=O)N2C(C(=O)O)=C(COC(N)=O)CS[C@@H]21 [cefoxitin],synergistic effects
3,C[C@@H](O)[C@H]1C(=O)N2C(C(=O)[O-])=C(SC3Cn4cnc[n+]4C3)[C@H](C)[C@H]12 (stereo partly drawn) [biapenem],synergistic effects
